Common to all, as to assay type: cell-based
For test [1], the target named is T1, P2Y2 receptor (Canis lupus, UniProt A0A8I3MZ62).
T1 construct: gene P2RY2; endogenous receptor in DH82 canine macrophage cells
The test can be described thus: Fura-2 Ca2+ assay in DH82 cells, inhibition of the response to […] UTP (peak).

Test [2] concerns the target T1, P2Y2 receptor. Put plainly: Fura-2 Ca2+ assay in DH82 cells, agonist peak response; blocked by AR-C118925 in Ca2+-free solution.
In test [3] the target is T1, P2Y2 receptor. The test can be described thus: Fura-2 Ca2+ assay in DH82 cells, agonist peak response.

T1 sequence (A0A8I3MZ62 1-377): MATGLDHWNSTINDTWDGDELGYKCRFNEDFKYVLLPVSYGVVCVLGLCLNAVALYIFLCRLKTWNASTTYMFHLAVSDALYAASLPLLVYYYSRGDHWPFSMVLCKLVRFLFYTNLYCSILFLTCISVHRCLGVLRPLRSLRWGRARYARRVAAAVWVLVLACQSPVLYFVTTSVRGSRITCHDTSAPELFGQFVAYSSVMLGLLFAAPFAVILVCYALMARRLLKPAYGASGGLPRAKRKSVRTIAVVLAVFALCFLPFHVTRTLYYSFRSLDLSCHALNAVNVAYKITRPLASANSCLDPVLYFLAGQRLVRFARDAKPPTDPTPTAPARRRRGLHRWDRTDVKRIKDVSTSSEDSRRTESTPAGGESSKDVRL

In turn, `Cc1ccc2c(c1)C=Cc1cc(C)ccc1C2c1cn(Cc2ccc(C(=O)Nc3nn[nH]n3)o2)c(=O)[nH]c1=S` [AR-C118925] showed an IC50 against P2Y2 receptor [1] of 6.61 ± 0.09 pIC50.
Take `Nc1ncnc2c1ncn2[C@@H]1O[C@H](COP(=O)(O)OP(=O)(O)OP(=O)(O)O)[C@@H](O)[C@H]1O` [ATP]: the “Peak Ca^2+ Response / pEC50” value on P2Y2 receptor [2] was 5.88 ± 0.05 pEC50.
Regarding `O=c1ccn([C@@H]2O[C@H](CO[P@@](=O)(O)O[P@@](=O)(O)OP(=O)(O)O)[C@@H](O)[C@H]2O)c(=O)[nH]1` [UTP], the “Peak Ca^2+ Response / pEC50” value at P2Y2 receptor [3] is reported as 6.16 ± 0.09 pEC50.
Consider `Cc1ccc(C(=O)Nc2ccc(S(=O)(=O)O)c3cc(S(=O)(=O)O)cc(S(=O)(=O)O)c23)cc1NC(=O)c1cccc(NC(=O)Nc2cccc(C(=O)Nc3cc(C(=O)Nc4ccc(S(=O)(=O)O)c5cc(S(=O)(=O)O)cc(S(=O)(=O)O)c45)ccc3C)c2)c1` [suramin], for which, at P2Y2 receptor [1], the IC50 is recorded as 3.70 ± 0.05 pIC50.

These data come from paper PMC7696671, “P2Y2 and P2X4 Receptors Mediate Ca^2+ Mobilization in DH82 Canine Macrophage Cells” (International Journal of Molecular Sciences, 2020).
